Results taken from article PMC8911884, “Discovery of Novel 3,4-Dihydro-2(1H)-Quinolinone Sulfonamide Derivatives as New Tubulin Polymerization Inhibitors with Anti-Cancer Activity” (Molecules, 2022).
Entries after “also recorded” stand apart in the source; their conditions may differ.

Columns and labels:
HCT116 = assay: MTT antiproliferative assay, HCT116; assay type: cell-based, human; settings: mean ± SD
From the text: (§1) The MTT method was used to evaluate the anti-tumor activity and cytotoxic activity of all the synthesized compounds in four tumor cell lines (HeLa, HCT-116, A549 and HepG-2) and normal liver cells (L02). At the same time, the 5-fluorouracil(5-Fu) and CA-4 were used as positive references. […] Unfortunately, our target compound has a similar cytotoxicity to tumor cells and normal cells.
(§2) The HeLa, HCT-116, A549 and HepG-2 cells in the logarithmic growth phase were trypsinized, diluted with 10% DMEM medium and evenly seeded in a 96-well plate with 1 × 10^4 cells per well. We placed the inoculated 96-well plate in an incubator at 37 °C and 5% CO2 for 4 h. After the cells adhered to the wall, we removed the medium. We added 150 μL of medicated medium (1% DMEM) to each well of the experimental group, and the control group was added with an equal volume of solvent, with 3 replicate holes for each concentration. Then, we put it in the incubator and continued to incubate for 48 h. After that, we added MTT reagent in the dark, continued incubating for 4 h, discarded the supernatant, added 150 µL DMSO to each well and shook it for 10 min in the dark to fully dissolved the formazan. The absorbance was read at 492 nm by a microplate reader (ELx 800, BioTek, Highland Park, Winooski, VT, USA).
(§3) The inhibition rate (%) = (1-dosing hole OD value/control hole OD value); we drew a logarithmic curve diagram according to the inhibition rate and the dosing concentration to obtain the half inhibitory concentration.

A549 = assay: MTT antiproliferative assay, A549; assay type: cell-based, human; settings: mean ± SD
Method: The MTT method was used to evaluate the anti-tumor activity and cytotoxic activity of all the synthesized compounds in four tumor cell lines (HeLa, HCT-116, A549 and HepG-2) and normal liver cells (L02).
as §2, §3

L02 = assay: MTT cytotoxicity assay, normal liver cells L02; assay type: cell-based; settings: mean ± SD
From the text: as §1, §2, §3

HepG-2 = assay: MTT antiproliferative assay, HepG-2; assay type: cell-based, human; settings: mean ± SD
From the text: as §1, §2, §3

HeLa = assay: MTT antiproliferative assay, HeLa; assay type: cell-based, human; settings: 48 h, mean ± SD
From the text: as §1, §2, §3

[1] = system: HeLa, HCT-116, A549 and HepG-2; assay: MTT antiproliferative activity across the four tumor cell lines; assay type: cell-based, human; settings: SAR discussion
From the text: as §1
As shown in, at the beginning, we first synthesized the ortho and meta substituted compounds, D7, D8, D9, D11 and D15. […] Then, we decided to introduce para-substituted benzaldehyde. […] This stimulated our interest, so we continued to introduce -OCH3 substituted at different positions to explore the effect of -OCH3 substituted at different positions on the anti-tumor activity of the compound. […] In short, we obtained a compound named D13 with good anti-tumor activity, and it was worthy of further study.
as §2, §3

tubulin = molecular target: T1, tubulin (Sus scrofa, UniProt P02550+P02554); assay: In vitro tubulin polymerization assay (fluorescence kit); assay type: biochemical; settings: area under fluorescence curve, 37 °C, 40 min
T1 construct: purchased Cytoskeleton (Danvers, MA, USA) BK011P
T1 sequence (P02554 whole entry): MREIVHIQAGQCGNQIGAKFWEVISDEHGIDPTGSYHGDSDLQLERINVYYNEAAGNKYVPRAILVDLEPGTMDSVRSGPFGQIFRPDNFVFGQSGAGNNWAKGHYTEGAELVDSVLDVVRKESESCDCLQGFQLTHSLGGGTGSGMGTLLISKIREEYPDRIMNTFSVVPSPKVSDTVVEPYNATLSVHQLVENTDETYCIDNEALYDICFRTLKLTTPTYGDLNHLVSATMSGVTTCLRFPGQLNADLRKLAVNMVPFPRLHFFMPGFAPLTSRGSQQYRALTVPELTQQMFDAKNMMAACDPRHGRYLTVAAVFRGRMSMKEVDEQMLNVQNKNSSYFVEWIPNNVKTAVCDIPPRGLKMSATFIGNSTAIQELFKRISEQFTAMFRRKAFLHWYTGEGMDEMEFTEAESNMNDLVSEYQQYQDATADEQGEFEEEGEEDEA
T1 sequence (P02550 whole entry): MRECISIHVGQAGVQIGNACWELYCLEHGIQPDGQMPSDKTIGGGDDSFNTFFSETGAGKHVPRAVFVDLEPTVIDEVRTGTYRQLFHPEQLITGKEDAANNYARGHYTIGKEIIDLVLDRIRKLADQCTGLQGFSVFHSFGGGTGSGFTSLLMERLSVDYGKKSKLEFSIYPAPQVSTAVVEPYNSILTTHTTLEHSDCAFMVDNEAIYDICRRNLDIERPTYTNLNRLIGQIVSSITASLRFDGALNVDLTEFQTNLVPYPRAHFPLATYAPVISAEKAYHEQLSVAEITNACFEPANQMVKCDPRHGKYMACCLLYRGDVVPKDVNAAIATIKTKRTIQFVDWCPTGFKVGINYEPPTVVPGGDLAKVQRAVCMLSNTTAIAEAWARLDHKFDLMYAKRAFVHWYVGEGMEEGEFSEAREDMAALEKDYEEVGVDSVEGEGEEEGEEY

Compound | IC50 (HCT116; Homo sapiens, HCT-116, 48 h) [µM] | IC50 (A549; Homo sapiens, A549, 48 h) [µM] | IC50 (L02; Homo sapiens, L02, 48 h) [µM] | IC50 (HepG-2; Homo sapiens, HepG2, 48 h) [µM] | IC50 (HeLa; Homo sapiens, HeLa) [µM] | melting point [°C] | antiproliferative activity (in words) [1] | IC50 (tubulin) [µM] | IC50 (HeLa) [µM] | IC50 (HCT116; 48 h) [µM] | IC50 (A549; 48 h) [µM] | IC50 (L02; 48 h) [µM] | IC50 (HepG-2; 48 h) [µM]
COc1ccc(/C=C\c2cc(OC)c(OC)c(OC)c2)cc1O [CA-4, Combretastatin A-4, reference compound] | 0.04 ± 0.016 | 0.12 ± 0.023 | 0.15 ± 0.05 | 0.05 ± 0.021 | 0.02 ± 0.001 |  |  |  |  |  |  |  | 
O=c1[nH]cc(F)c(=O)[nH]1 [Compound 5-Fu, 5-fluorouracil, reference compound] | 11.7 ± 2.37 |  | 20 ± 1.25 | 18.3 ± 0.76 | 29.6 ± 3.21 |  |  |  |  |  |  |  | 
COc1cc(N(Cc2ccc(F)cc2)S(=O)(=O)c2ccc3c(c2)CCC(=O)N3)cc(OC)c1OC [Compound D3, N-(4-fluorobenzyl)-2-oxo-N-(3,4,5-trimethoxyphenyl)-1,2,3,4-tetrahydroquinoline-6-sulfonamide] | 3.87 ± 0.12 | 18.2 ± 4.11 | 5.31 ± 1.08 | 6.31 ± 1.21 | 7.54 ± 1.48 | 108 to 110 | strong anti-proliferative activity |  |  |  |  |  | 
COc1cc(N(Cc2ccc(Cl)cc2)S(=O)(=O)c2ccc3c(c2)CCC(=O)N3)cc(OC)c1OC [Compound D4, N-(4-chlorobenzyl)-2-oxo-N-(3,4,5-trimethoxyphenyl)-1,2,3,4-tetrahydroquinoline-6-sulfonamide] | 4.21 ± 0.5 | 8.49 ± 1.77 | 6.35 ± 2.03 | 4.12 ± 0.55 | 9.67 ± 2.1 | 119 to 121 | strong anti-proliferative activity |  |  |  |  |  | 
COc1cc(N(Cc2ccc(C)cc2)S(=O)(=O)c2ccc3c(c2)CCC(=O)N3)cc(OC)c1OC [Compound D5, N-(4-methylbenzyl)-2-oxo-N-(3,4,5-trimethoxyphenyl)-1,2,3,4-tetrahydroquinoline-6-sulfonamide] | 1.13 ± 0.01 | 2.96 ± 0.13 | 3.05 ± 0.19 | 2.36 ± 0.11 | 1.34 ± 0.3 | 128 to 130 | strong anti-proliferative activity |  |  |  |  |  | 
COc1cc(N(Cc2ccc(N(C)C)cc2)S(=O)(=O)c2ccc3c(c2)CCC(=O)N3)cc(OC)c1OC [Compound D6, N-(4-(dimethylamino)benzyl)-2-oxo-N-(3,4,5-trimethoxyphenyl)-1,2,3,4-tetrahydroquinoline-6-sulfonamide] | 2.05 ± 0.11 | 2.42 ± 0.46 | 5.31 ± 1.02 | 4.74 ± 1.56 | 3.63 ± 0.98 | 127 to 129 | strong anti-proliferative activity |  |  |  |  |  | 
COc1cc(N(Cc2cccc(C)c2)S(=O)(=O)c2ccc3c(c2)CCC(=O)N3)cc(OC)c1OC [Compound D7, N-(3-methylbenzyl)-2-oxo-N-(3,4,5-trimethoxyphenyl)-1,2,3,4-tetrahydroquinoline-6-sulfonamide] | 28.2 ± 4.26 | 35 ± 6.74 | 30.2 ± 2.56 | 44.3 ± 4.31 | 36.5 ± 3.59 | 120 to 122 | poor antiproliferative activity |  |  |  |  |  | 
COc1cc(N(Cc2ccccc2F)S(=O)(=O)c2ccc3c(c2)CCC(=O)N3)cc(OC)c1OC [Compound D8, N-(2-fluorobenzyl)-2-oxo-N-(3,4,5-trimethoxyphenyl)-1,2,3,4-tetrahydroquinoline-6-sulfonamide] | 17.5 ± 1.33 | > 100 | 60.2 ± 4.21 | 50.9 ± 6.77 | 21.6 ± 3.56 | 138 to 140 | poor antiproliferative activity |  |  |  |  |  | 
COc1cc(N(Cc2ccccc2Cl)S(=O)(=O)c2ccc3c(c2)CCC(=O)N3)cc(OC)c1OC [Compound D9, N-(2-chlorobenzyl)-2-oxo-N-(3,4,5-trimethoxyphenyl)-1,2,3,4-tetrahydroquinoline-6-sulfonamide] | 12.2 ± 2.89 | 31.7 ± 4.55 | 36.2 ± 4.21 | 27.5 ± 3.28 | 16.9 ± 4.11 | 117 to 119 | poor antiproliferative activity |  |  |  |  |  | 
COc1cc(N(Cc2ccc(Cl)c(Cl)c2)S(=O)(=O)c2ccc3c(c2)CCC(=O)N3)cc(OC)c1OC [Compound D10, N-(3,4-dichlorobenzyl)-2-oxo-N-(3,4,5-trimethoxyphenyl)-1,2,3,4-tetrahydroquinoline-6-sulfonamide] | 51.2 ± 13.5 | > 100 | 48.3 ± 6.64 |  | 75.3 ± 10.3 | 123 to 125 |  |  |  |  |  |  | 
COc1cccc(CN(c2cc(OC)c(OC)c(OC)c2)S(=O)(=O)c2ccc3c(c2)CCC(=O)N3)c1 [Compound D12, N-(3-methoxybenzyl)-2-oxo-N-(3,4,5-trimethoxyphenyl)-1,2,3,4-tetrahydroquinoline-6-sulfonamide] | 48.2 ± 7.46 |  | 56.3 ± 2.15 | 64.1 ± 7.56 | 54.6 ± 8.15 | 121 to 123 | poor antiproliferative activity |  |  |  |  |  | 
COc1ccc(CN(c2cc(OC)c(OC)c(OC)c2)S(=O)(=O)c2ccc3c(c2)CCC(=O)N3)cc1 [Compound D13, N-(4-methoxybenzyl)-2-oxo-N-(3,4,5-trimethoxyphenyl)-1,2,3,4-tetrahydroquinoline-6-sulfonamide] | 0.94 ± 0.31 | 1.57 ± 0.25 | 3.61 ± 1.02 | 1.82 ± 0.97 | 1.34 | 122 to 124 | strongest anti-proliferative activity; also recorded: strong anti-proliferative activity | 6.74 | 1.46 ± 0.11 |  |  |  | 
COc1ccc(CN(c2cc(OC)c(OC)c(OC)c2)S(=O)(=O)c2ccc3c(c2)CCC(=O)N3)cc1OC [Compound D14, N-(3,4-dimethoxybenzyl)-2-oxo-N-(3,4,5-trimethoxyphenyl)-1,2,3,4-tetrahydroquinoline-6-sulfonamide] | 87.8 ± 15.2 | 49.3 ± 12.5 | 66.5 ± 7.81 |  | > 100 | 116 to 118 | poor antiproliferative activity |  |  |  |  |  | 
COc1ccc(OC)c(CN(c2cc(OC)c(OC)c(OC)c2)S(=O)(=O)c2ccc3c(c2)CCC(=O)N3)c1 [Compound D15] | > 100 |  | > 100 | 75.4 ± 15.4 | 86.4 ± 14.2 | 127 to 129 | poor antiproliferative activity |  |  |  |  |  | 
COc1cc(CN(c2cc(OC)c(OC)c(OC)c2)S(=O)(=O)c2ccc3c(c2)CCC(=O)N3)cc(OC)c1OC [Compound D16, 2-oxo-N-(3,4,5-trimethoxybenzyl)-N-(3,4,5-trimethoxyphenyl)-1,2,3,4-tetrahydroquinoline-6-sulfonamide] | 2.08 ± 0.24 | 7.34 ± 1.44 | 4.25 ± 0.87 | 5.48 ± 1.23 | 4.91 ± 0.76 | 131 to 133 |  |  |  |  |  |  | 
N-benzyl-2-oxo-N-(3,4,5-trimethoxyphenyl)-1,2,3,4-tetrahydroquinoline-7-sulfonamide [Compound D1] |  |  |  |  |  |  | strong anti-proliferative activity |  | 13.5 ± 2.15 | 25.9 ± 0.98 | 14.2 ± 1.26 | 20.7 ± 3.12 | 9.87 ± 2.49
